Test results taken from the supplement of paper PMC8671470.

What was measured:
Conditions in all cases: 72 h
HL-60 [1] = assay: area under dose-response curve (viability, 1 nM-10 uM) (fraction (0-1)); higher = more sensitive
In short: (§1)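 Four-parameter log-logistic fits in drc and PharmacoGx supplied area under the curve where it is given. Underlying viability came from CellTiter-Glo, normalised to DMSO and proteasome-inhibitor wells, with the proteasome inhibitor at 10 μM. HL-60 cells in RPMI 1640 plus 10% FBS had been rescreened against the full library at five tenfold concentrations of 1–10,000 nM, in duplicate on 384-well plates, with DMSO or 100 nM of one of three metabolic inhibitors, for 72 h at 37 °C, 5% CO2.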

HEL [2] = test system: HEL
In short: (§2)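 The IC50 was derived from log-logistic dose–response fitting. Each of fifteen myeloid leukaemia cell lines, seeded in RPMI 1640 within its linear growth range, was exposed in 384-well plates to five tenfold doses (1 to 10,000 nM) in duplicate for 72 h at 37 °C and 5% CO2. Luminescent ATP viability readings were normalised to vehicle and to a positive control at 10 µM before four-parameter curve fitting.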

NOMO-1 [3] = test system: NOMO-1
In short: as §2

BV-173 [4] = test system: BV-173
In short: as §2

MOLM-13 = test system: MOLM-13
In short: as §2

KG-1 = test system: KG-1
In short: as §2

THP-1 = test system: THP-1
In short: as §2

KCL-22 [5] = test system: KCL-22
In short: as §2

MV4-11 = test system: MV4-11
In short: as §2

HL-60 [6] = test system: HL-60
In short: as §2

KU-812 [7] = test system: KU-812
In short: as §2

Mono-Mac-6 [8] = test system: Mono-Mac-6
In short: as §2

ML-2 [9] = test system: ML-2
In short: as §2

LAMA-84 [10] = test system: LAMA-84
In short: as §2

K-562 [11] = test system: K-562
In short: as §2

SHI-1 [12] = test system: SHI-1
In short: as §2

HL-60 [13] = assay: cell viability (% survival relative to DMSO control); higher = less cytotoxic
In short: as §1

HEL [14] = assay: cell viability (% survival relative to DMSO control, bortezomib = 0%); higher = less cytotoxic
In short: (§3)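 Reported values are percent survival from duplicate wells, averaged. Fifteen myeloid leukaemia cell lines were treated in 384-well plates with compounds at 1, 10, 100, 1000 or 10000 nM for 72 h at 37 °C in 5% CO2. Signals from CellTiter-Glo luminescence were scaled with vehicle as 100% and a 10 µM positive control as 0%.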

NOMO-1 [15] = assay: as above
In short: as §3

BV-173 [16] = assay: as above
In short: as §3

KCL-22 [17] = assay: as above
In short: as §3

HL-60 [18] = assay: as above
In short: as §3

KU-812 [19] = assay: as above
In short: as §3

Mono-Mac-6 [20] = assay: as above
In short: as §3

ML-2 [21] = assay: as above
In short: as §3

LAMA-84 [22] = assay: as above
In short: as §3

K-562 [23] = assay: as above
In short: as §3

SHI-1 [24] = assay: as above
In short: as §3

O=C(O)c1cc(N=Nc2ccc(S(=O)(=O)Nc3ccccn3)cc2)ccc1O [Sulfasalazine]
Conditions | area under dose-response curve, co-treatment: AZD3965 100 nM | area under dose-response curve, co-treatment: DMSO vehicle | area under dose-response curve, co-treatment: GSK2194069 100 nM | area under dose-response curve, co-treatment: pictilisib 100 nM | cell viability, 1 nM [%] | cell viability, 10 nM [%] | cell viability, 100 nM [%] | cell viability, 1000 nM [%] | cell viability, 10000 nM [%]
BV-173 [16] | – | – | – | – | 106 | 90.3 | 113 | 99.7 | 112
HEL [14] | – | – | – | – | 111 | 91.9 | 114 | 94 | 111
HL-60 [1] | < 0.0301 | < 0.0301 | < 0.0301 | < 0.0301 | – | – | – | – | –
HL-60 [18] | – | – | – | – | 99.4 | 71.4 | 135 | 106 | 70.8
K-562 [23] | – | – | – | – | 100 | 91.6 | 120 | 90.3 | 131
KCL-22 [17] | – | – | – | – | 107 | 97.3 | 106 | 92.9 | 124
KU-812 [19] | – | – | – | – | 110 | 98.2 | 107 | 108 | 102
LAMA-84 [22] | – | – | – | – | 105 | 97.1 | 101 | 106 | 105
ML-2 [21] | – | – | – | – | 106 | 87.4 | 118 | 112 | 102
Mono-Mac-6 [20] | – | – | – | – | 105 | 92.7 | 120 | 103 | 104
NOMO-1 [15] | – | – | – | – | 112 | 101 | 99 | 101 | 102
SHI-1 [24] | – | – | – | – | 107 | 87.6 | 114 | 97.8 | 95.7

Conditions | IC50 (cell viability) [µM]
BV-173 [4] | > 10
HEL [2] | > 10
HL-60 [6] | > 10
K-562 [11] | > 10
KCL-22 [5] | > 10
KG-1 | > 10
KU-812 [7] | > 10
LAMA-84 [10] | > 10
ML-2 [9] | > 10
MOLM-13 | > 10
MV4-11 | > 10
Mono-Mac-6 [8] | > 10
NOMO-1 [3] | > 10
SHI-1 [12] | > 10
THP-1 | > 10

cell viability [%], HL-60 [13]
Conditions | 0.001 µM | 0.01 µM | 0.1 µM | 1 µM | 10 µM
co-treatment: AZD3965 100 nM | 101.5 | 109 | 96 | 97.23 | 111
co-treatment: DMSO vehicle | 101 | 101.7 | 98.9 | 100.2 | 104
co-treatment: GSK2194069 100 nM | 105 | 103 | 101 | 103 | 105
co-treatment: pictilisib 100 nM | 107 | 103 | 93.57 | 92.3 | 112

O[C@H]1[C@H]2[C@H](O)CCCN2C[C@H]1O [Swainsonine]
Conditions | area under dose-response curve, co-treatment: AZD3965 100 nM | area under dose-response curve, co-treatment: DMSO vehicle | area under dose-response curve, co-treatment: GSK2194069 100 nM | area under dose-response curve, co-treatment: pictilisib 100 nM | cell viability, 1 nM [%] | cell viability, 10 nM [%] | cell viability, 100 nM [%] | cell viability, 1000 nM [%] | cell viability, 10000 nM [%]
BV-173 [16] | – | – | – | – | 98.1 | 104 | 98.3 | 90.8 | 86.1
HEL [14] | – | – | – | – | 99.2 | 83.9 | 108 | 97.3 | 92.5
HL-60 [1] | < 0.0301 | < 0.0301 | < 0.0301 | < 0.0301 | – | – | – | – | –
HL-60 [18] | – | – | – | – | 107 | 88 | 104 | 95.8 | 112
K-562 [23] | – | – | – | – | 109 | 107 | 102 | 101 | 107
KCL-22 [17] | – | – | – | – | 88.9 | 92.3 | 102 | 98.1 | 89.9
KU-812 [19] | – | – | – | – | 104 | 100 | 100 | 99.8 | 109
LAMA-84 [22] | – | – | – | – | 112 | 94 | 103 | 99.7 | 98.6
ML-2 [21] | – | – | – | – | 97.9 | 97.7 | 108 | 86.4 | 79.5
Mono-Mac-6 [20] | – | – | – | – | 101 | 106 | 106 | 90 | 102
NOMO-1 [15] | – | – | – | – | 109 | 103 | 99.4 | 94.7 | 94.1
SHI-1 [24] | – | – | – | – | 93.8 | 110 | 109 | 108 | 102

Conditions | IC50 (cell viability) [µM]
BV-173 [4] | > 10
HEL [2] | > 10
HL-60 [6] | > 10
K-562 [11] | > 10
KCL-22 [5] | > 10
KG-1 | > 10
KU-812 [7] | > 10
LAMA-84 [10] | > 10
ML-2 [9] | > 10
MOLM-13 | > 10
MV4-11 | > 10
Mono-Mac-6 [8] | > 10
NOMO-1 [3] | > 10
SHI-1 [12] | > 10
THP-1 | > 10

cell viability [%], HL-60 [13]
Conditions | 0.001 µM | 0.01 µM | 0.1 µM | 1 µM | 10 µM
co-treatment: AZD3965 100 nM | 97.6 | 103.58 | 97.5 | 98.4 | 102
co-treatment: DMSO vehicle | 99.37 | 104 | 102 | 103 | 108
co-treatment: GSK2194069 100 nM | 98.4 | 110 | 97.2 | 90.3 | 106
co-treatment: pictilisib 100 nM | 101 | 108 | 91.9 | 120 | 106

Cc1coc2c1C(=O)C(=O)c1c-2ccc2c1CCCC2(C)C [Tanshinone IIA]
Conditions | area under dose-response curve, co-treatment: AZD3965 100 nM | area under dose-response curve, co-treatment: DMSO vehicle | area under dose-response curve, co-treatment: GSK2194069 100 nM | area under dose-response curve, co-treatment: pictilisib 100 nM | cell viability, 1 nM [%] | cell viability, 10 nM [%] | cell viability, 100 nM [%] | cell viability, 1000 nM [%] | cell viability, 10000 nM [%]
BV-173 [16] | – | – | – | – | 91.9 | 103 | 105 | 97.3 | 87.7
HEL [14] | – | – | – | – | 91 | 100 | 107 | 111 | 97.9
HL-60 [1] | < 0.0301 | < 0.0301 | < 0.0301 | < 0.0301 | – | – | – | – | –
HL-60 [18] | – | – | – | – | 113 | 96.6 | 95.1 | 98.7 | 79.3
K-562 [23] | – | – | – | – | 98.1 | 104 | 104 | 109 | 81.3
KCL-22 [17] | – | – | – | – | 114 | 98.8 | 107 | 105 | 59.9
KU-812 [19] | – | – | – | – | 89.8 | 95.2 | 93.1 | 106 | 86.2
LAMA-84 [22] | – | – | – | – | 102 | 97.7 | 98.5 | 99.6 | 102
ML-2 [21] | – | – | – | – | 106 | 111 | 103 | 101 | 77.6
Mono-Mac-6 [20] | – | – | – | – | 90.9 | 99 | 102 | 91.1 | 87.7
NOMO-1 [15] | – | – | – | – | 103 | 104 | 102 | 102 | 91.9
SHI-1 [24] | – | – | – | – | 106 | 98.5 | 98.8 | 107 | 96.1

Conditions | IC50 (cell viability) [µM]
BV-173 [4] | > 10
HEL [2] | > 10
HL-60 [6] | > 10
K-562 [11] | > 10
KCL-22 [5] | > 10
KG-1 | > 10
KU-812 [7] | > 10
LAMA-84 [10] | > 10
ML-2 [9] | > 10
MOLM-13 | > 10
MV4-11 | > 10
Mono-Mac-6 [8] | > 10
NOMO-1 [3] | > 10
SHI-1 [12] | > 10
THP-1 | > 10

cell viability [%], HL-60 [13]
Conditions | 0.001 µM | 0.01 µM | 0.1 µM | 1 µM | 10 µM
co-treatment: AZD3965 100 nM | 106 | 106 | 104 | 101 | 103
co-treatment: DMSO vehicle | 100.1 | 105 | 101 | 99.49 | 99
co-treatment: GSK2194069 100 nM | 106.9 | 110.7 | 105 | 101.4 | 97.5
co-treatment: pictilisib 100 nM | 95.5 | 111 | 107 | 109 | 109
